According to patent US7939568B2, “Use of a composition comprising vitamin K1 oxide or a derivative thereof for the treatment and/or the prevention of mammal dermatological lesions” (Auriga International S.A., priority 2003, dated 2011):

Key:
[1] = Transformation in presence of light; type: physicochemical
Source text: The improved stability of vitamin K1 oxide compared to vitamin K1, reduces also unexpectedly the side effects of a cosmetic composition. […] Such transformation of vitamin K1 oxide is not observed in the presence of light and these side effects are not present when the cosmetic composition according to the invention is applied upon mammal skin.

[2] = Formation of chromophoric group on mixing with retinol; type: physicochemical; conditions: mixing with retinol (or retinol palmitate)

Structure (SMILES) | transformation into Menadione (vitamin K3) and 1.4.Naphtoquinone [1] | formation of chromophoric group [2]
CC1=C(C/C=C(\C)CCC[C@H](C)CCC[C@H](C)CCCC(C)C)C(=O)c2ccccc2C1=O [vitamin K1, 2-methyl 3-phytyl-1,4-naphtoquinone] | transformed into Menadione (vitamin K3) and 1.4.Naphtoquinone | 
CC(=CCC12OC1(C)C(=O)c1ccccc1C2=O)CCCC(C)CCCC(C)CCCC(C)C (stereo not drawn) [vitamin K1 oxide] | not observed | does not allow the formation of chromophoric group
